According to patent US6916802B2, “Amino ceramide-like compounds and therapeutic methods of use” (Genzyme Corporation, priority 2002, dated 2005):
Values joined by “and” are separate entries in the source; they are usually repeats but may differ in a detail not shown here. Equal entries are not always repeated. Marks after values point to notes of the source that are not given here.

Columns and labels:
[1] = system: GlcCer synthase of MDCK cell homogenates; assay: Inhibition of ceramide glucosyltransferase (GlcCer synthase) of MDCK cell homogenates; assay type: biochemical, canine; conditions: for % Inhibition at 80 μM: 80 μM inhibitor; for % Inhibition at 80 μM / Inhibition at 5 μM: triplicate ± SD, samples partly isomer mixtures; for Inhibition at 5 μM: 5 μM inhibitor; for inhibition of GlcCer synthase by nonionic ceramide-like compounds: 20 μM
Description: Assay of sphingolipid enzymes. The inhibitors were evaluated for their effectiveness against the GlcCer synthase of MDCK cell homogenates by incubation in a thermostatted ultrasonic bath (Radin N. S. et al., “Ultrasonic Baths as Substitutes for Shaking Incubator Baths,” Enzyme, 45:67-70 (1991)) with octanoyl sphingosine and uridinediphospho[^3H]glucose (Shukla, G. S. et al., “Glucosylceramide Synthase of Mouse Kidney: Further Characterization and Improved Assay Method,” Arch. Biochem. Biophys., 283:372-378 (1990)). The lipoidal substrate (85 μg) was added in liposomes made from 0.57 mg dioleoylphosphatidylcholine and 0.1 mg of Na sulfatide. Confluent cells were washed, then homogenized with a micro-tip sonicator at 0° C. for 3×30 sec; ˜0.2 mg of protein was used in each assay tube. In the case of the aromatic inhibitors, the test compound was simply evaporated to dryness from solution in the incubation tube. […] The aliphatic inhibitors, which appeared to be less soluble in water, were added as part of the substrate liposomes.

[2] = system: 9L brain gliosarcoma cells; assay: Tumor cell growth in vitro (sulforhodamine B), 9L; assay type: cell-based; conditions: for effectiveness on growth and survival of 9L cells, in words: FIG. 1
Description: Growth of cell lines. Comparisons of different inhibitors with regard to suppression of human cancer cell growth were made by the University of Michigan Cancer Center in vitro Drug Evaluation Core Laboratory. MCF-7 breast carcinoma cells, HT-29 colon adenocarcinoma cells, H-460 lung large cell carcinoma cells, and 9L brain gliosarcoma cells were grown in RPMI 1640 medium with 5% fetal bovine serum, 2 mM glutamine, 50 units/ml of penicillin, […] of streptomycin, and 0.1 mg/ml of neomycin. UMSCC-10A head and neck squamous carcinoma cells were grown in minimal essential medium with Earle salts and the same supplements. Medium components were from Sigma Chemical Co. Cells were plated in 96-well microtiter plates (1000 cells/well for H-460 and 9L cells, and 2000 cells/well for the other lines), and the test compounds were added 1 day later. The stock inhibitor solutions, 2 mM in 2 mM BSA, were diluted with different amounts of additional 2 mM BSA, then each solution was diluted 500-fold with growth medium to obtain the final concentrations indicated in the Figures and Tables.
Five days after plating the H-460 and 9L cells, or 6 days for the other lines, cell growth was evaluated by staining the adhering cells with sulforhodamine B and measuring the absorbance at 520 nm (Skehan, P. et al., “New Colorimetric Cytotoxicity Assay for Anticancer-Drug Screening,” J. Natl. Cancer Inst., 82:1107-1112 (1990)). The absorbance of the treated cultures is reported as percent of that of control cultures, to provide an estimate of the fraction of the cells that survived, or of inhibition of growth rate.

[3] = system: acid ceramidase; assay: Acid ceramidase of MDCK cell homogenate; assay type: biochemical, canine
Description: (§1) Acid and neutral ceramidases were assayed under conditions like those above, but the medium contained 110 μM [1-^14C]decanoyl sphingosine (10^5 cpm) in 340 μM dioleoylphosphatidylcholine liposomes and 0.34 mg of MDCK cellular protein homogenate. […] After 60 min in the ultrasonic bath, 3 ml of C-M 2:1, carrier decanoic acid, and 0.6 ml of 0.9% saline were added and the lipids in the lower layer were separated by TLC with C-HOAc 9:1. The liberated decanoic acid was scraped off the glass plate and counted.

[4] = system: neutral ceramidase; assay: Neutral ceramidase of MDCK cell homogenate; assay type: biochemical, canine
Description: as §1

[5] = system: Ceramide synthase; assay: Ceramide synthase of MDCK homogenate; assay type: biochemical, canine
Description: Ceramide synthase was assayed with 1 μM [3-^3H]sphingosine (70,000 cpm, repurified by column chromatography), 0.2 mM stearoyl-CoA, 0.5 mM dithiothreitol, and ˜300 μg of MDCK homogenate protein in 25 mM phosphate-K^+ buffer, pH 7.4, in a total volume of 0.2 ml. The incubation (for 30 min) and TLC were carried out as above and the ceramide band was counted.

[6] = system: Acid SMase; assay: Acid sphingomyelinase of MDCK cells; assay type: biochemical, canine
Description: Acid and neutral SMase assays were based on the procedures of Gatt et al. (Gatt, S. et al., “Assay of Enzymes of Lipid Metabolism With Colored and Fluorescent Derivatives of Natural Lipids,” Meth. Enzymol., 72:351-375 (1981)), using liposomes containing NBD-SM dispersed like the labeled ceramide (10 μM substrate and 30 μM lecithin). The assay medium for the neutral enzyme also contained 50 mM Tris-Cl^− (pH 7.4), 25 mM KCl, 5 mM MgCl2 and 0.29 mg of MDCK cell protein in a total volume of 0.25 ml. Incubation was at 37° C. for 30 min in the ultrasonic bath, then the fluorescent product, NBD-ceramide, was isolated by partitioning the assay mixture with 0.45 ml 2-propanol, 1.5 ml heptane, and 0.2 ml water. After centrifugation, a trace of contaminating NBD-SM was removed from 0.9 ml of the upper layer by washing with 0.35 ml water. The upper layer was analyzed with a fluorometer (460 nm excitation, 515 nm emission).
[…] The resultant ceramide was determined as above.

[7] = system: Neutral sphingomyelinase (SMase); assay: Neutral sphingomyelinase of MDCK cells; assay type: biochemical, canine
Description: Acid and neutral SMase assays were based on the procedures of Gatt et al. (Gatt, S. et al., “Assay of Enzymes of Lipid Metabolism With Colored and Fluorescent Derivatives of Natural Lipids,” Meth. Enzymol., 72:351-375 (1981)), using liposomes containing NBD-SM dispersed like the labeled ceramide (10 μM substrate and 30 μM lecithin). […] Incubation was at 37° C. for 30 min in the ultrasonic bath, then the fluorescent product, NBD-ceramide, was isolated by partitioning the assay mixture with 0.45 ml 2-propanol, 1.5 ml heptane, and 0.2 ml water. After centrifugation, a trace of contaminating NBD-SM was removed from 0.9 ml of the upper layer by washing with 0.35 ml water. The upper layer was analyzed with a fluorometer (460 nm excitation, 515 nm emission).

## CCCCCCCCCCCCCCCC(=O)NC(CN(CC)CC)C(O)c1ccccc1 (mixture of isomers) [BML-114]
[1]
  activity against GlcCer synthase, in words: little or no activity
  % Inhibition at 80 μM: 31 ± 2.9^a %

## CCCCCCCCCCCCCCCC(=O)NC(CN)C(O)c1ccccc1 (mixture of isomers) [BML-124]
[1]
  activity against GlcCer synthase, in words: little or no activity
  % Inhibition at 80 μM: −2 ± 1.6^d %

## CCCCCCCCCCCCCCCC(=O)NC(CN1CCCC(N(C)C)C1)C(O)c1ccccc1 (mixture of isomers) [BML-121]
[1]
  % Inhibition at 80 μM: 11 ± 0.4^c %

## CCCCCCCCCCCCCCCC(=O)NC(CN1CCCC1)C(O)c1ccc(OC)cc1 (mixture of isomers) [BML-126]
[1]
  Inhibition at 5 μM: 54 ± 0.3^f %
  % Inhibition at 80 μM: 60 ± 1.8^e %
[2]; 9L, rounded off to one digit, read-out: Inhibition of tumor cell growth in vitro, IC50
  IC50: 2 µM

## CCCCCCCCCC(=O)N[C@H](CN1CCOCC1)[C@H](O)c1ccccc1 [PDMP, 1R-phenyl-2R-decanoylamino-3-morpholino-1-propanol, reference compound]
[1]
  Inhibition at 5 μM: 16 ± 1.8^f %
  % Inhibition at 80 μM: 90 ± 0.8^a %
[2]
  effectiveness on growth and survival of 9L cells, in words: even weaker effectiveness
[3]; 5 μM
  Ceramidase pH 4.5, enzyme activity (% of control): 97 ± 4 % of control
[3]; 50 μM
  Ceramidase pH 4.5, enzyme activity (% of control): 133 ± 13^a % of control
[4]; 5 μM
  Ceramidase pH 7.4, enzyme activity (% of control): 116 ± 19 % of control
[4]; 50 μM
  Ceramidase pH 7.4, enzyme activity (% of control): 105 ± 11 % of control
[5]; 5 μM
  Ceramide Synthase, enzyme activity (% of control): 99 ± 5 % of control
[5]; 50 μM
  Ceramide Synthase, enzyme activity (% of control): 66 ± 9^a % of control
[6]; 5 μM
  Sphingomyelinase pH 4.5, enzyme activity (% of control): 102 ± 3 % of control
[6]; 50 μM
  Sphingomyelinase pH 4.5, enzyme activity (% of control): 100 ± 3 % of control
[7]; 5 μM
  Sphingomyelinase pH 7.1, enzyme activity (% of control): 121 ± 13 % of control
[7]; 50 μM
  Sphingomyelinase pH 7.1, enzyme activity (% of control): 108 ± 8 % of control

## CCCCCCCCCCCCC/C=C/[C@H](O)[C@@H](CN1CCCC1)NC(=O)CCCCCCCCCCCCCCC [IV-230A]
[1]
  Inhibition at 5 μM: 19 ± 2.1^g %

## CCCCCCCCCCCCC/C=C/[C@@H](O)[C@H](CO)NC(C)=O [N-acetylsphingosine, reference compound]
[1]
  inhibition of GlcCer synthase by nonionic ceramide-like compounds: did not inhibit

## CCCCCCCCCCCCC/C=C/[C@@H](O)[C@@H](CN1CCOCC1)NC(=O)CCCCCCCCCCCCCCC [IV-206A]
[1]
  Inhibition at 5 μM: 73 ± 1.5^g %

## CCCCCCCCCCCCCCCC(=O)NC(CN1CCN(C)CC1)C(O)c1ccccc1 (mixture of isomers) [BML-120]
[1]
  % Inhibition at 80 μM: 11 ± 3.0^c %

## CCCCCCCCCCCCCCCC(=O)NC(CN(C)CCO)C(O)c1ccccc1 (mixture of isomers) [BML-122]
[1]
  % Inhibition at 80 μM: 58 ± 1.6^d %

## CCCCCCCCCCCCCCCC(=O)NC(CN1CCOCC1)C(O)c1ccc(F)cc1 (mixture of isomers) [BML-113]
[1]
  % Inhibition at 80 μM: 60 ± 4.7^a %

## CCCCCCCCCC(=O)NC(CN1CCOCC1)C(O)c1ccc(F)cc1 (mixture of isomers) [BML-117]
[1]
  % Inhibition at 80 μM: 35 ± 0.6^b %

## CCCCCCCCCCCCCCCC(=O)NC(CN1CCOCC1)C(O)c1ccc(OC)cc1 (mixture of isomers) [BML-125]
[1]
  Inhibition at 5 μM: 9 ± 3.0^e %

## CCCCCCCCCCCCCCCC(=O)NC(CN1CCCCCC1)C(O)c1ccccc1 (mixture of isomers) [BML-116]
[1]
  % Inhibition at 80 μM: 28 ± 3.2^a %

## CCCCCCCCCCCCCC(=O)N[C@@H](C)[C@H](O)c1ccccc1 [D-erythro-N-myristoyl-2-amino-1-phenyl-1-propanol, reference compound]
[1]
  inhibition of GlcCer synthase by nonionic ceramide-like compounds: did not inhibit

## CCCCCCCCCCCCCCCC(=O)NC(CN1CCOCC1)C(O)c1ccccc1 (stereo not shown) [PPMP, reference compound]
[1]; 5 µM
  Inhibition at 5 μM: 32 ± 1.8^e % and 32 ± 0.7^f %
[2]
  effectiveness on growth and survival of 9L cells, in words: relatively weak effectiveness

## CCCCCCCCCCCCC/C=C/[C@H](O)[C@@H](CN1CCOCC1)NC(=O)CCCCCCCCCCCCCCC [IV-181A]
[1]
  Inhibition at 5 μM: 12 ± 0.2^g %
